Measurements as given in publication PMC11301271 (FEBS Open Bio, 2024).
Values joined by “and” are separate entries in the source; they are usually repeats but may differ in a detail not shown here. Identical values can stand only once. Like-named read-outs stand apart in the source and are kept apart here.

Assays:
FPPS [1] = target: T1, FPPS (Homo sapiens, UniProt P14324); conditions: read-out: Kd, binding affinity of FPP for FPPS; ref [21]; cited from earlier work
T1 sequence (P14324 1-419): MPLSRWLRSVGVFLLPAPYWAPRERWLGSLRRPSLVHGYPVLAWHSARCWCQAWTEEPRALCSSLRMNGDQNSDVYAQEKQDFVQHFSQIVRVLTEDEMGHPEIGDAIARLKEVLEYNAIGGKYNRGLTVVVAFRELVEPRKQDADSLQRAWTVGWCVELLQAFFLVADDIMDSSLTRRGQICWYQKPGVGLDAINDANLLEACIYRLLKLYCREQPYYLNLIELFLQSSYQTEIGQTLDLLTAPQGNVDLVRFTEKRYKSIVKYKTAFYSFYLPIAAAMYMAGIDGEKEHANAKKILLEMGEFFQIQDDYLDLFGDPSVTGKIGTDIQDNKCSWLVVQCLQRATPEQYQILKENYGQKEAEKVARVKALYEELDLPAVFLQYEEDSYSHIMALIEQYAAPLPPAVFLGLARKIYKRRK

human MK [2] = target: T2, human MK (Homo sapiens, UniProt Q03426); assay: MK coupled enzyme assay (pyruvate kinase/lactate dehydrogenase): inhibitor screening and IC50; type: biochemical; conditions: for IC50: read-out: IC50 for MK inhibition; for MK inhibition, result in words: screening, 10 μM compound
T2 construct: His6 (N); made in house; host or cells: E. coli BL21(DE3)
T2 sequence (Q03426 whole entry): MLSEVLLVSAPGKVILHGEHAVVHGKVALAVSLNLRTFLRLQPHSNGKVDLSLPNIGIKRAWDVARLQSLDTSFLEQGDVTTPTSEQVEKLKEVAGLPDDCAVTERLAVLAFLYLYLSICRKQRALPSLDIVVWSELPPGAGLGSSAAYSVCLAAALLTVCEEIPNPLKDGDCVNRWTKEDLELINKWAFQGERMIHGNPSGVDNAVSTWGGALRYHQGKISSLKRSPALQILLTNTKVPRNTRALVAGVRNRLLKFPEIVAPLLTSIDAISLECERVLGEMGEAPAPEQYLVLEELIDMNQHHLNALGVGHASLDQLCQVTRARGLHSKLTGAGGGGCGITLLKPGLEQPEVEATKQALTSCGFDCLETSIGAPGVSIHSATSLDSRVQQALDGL
Protocol: A pET‐15b plasmid encoding human MK (UniProt Q03426) with an N‐terminal His6‐tag was transformed into E. coli BL21(DE3) cells (New England Biolabs, Whitby, ON, Canada). The cells were cultured in LB at 37 °C until the OD600 of the culture reached 0.6. Expression of the recombinant enzyme was induced by 0.1 mM IPTG for 6 h at 37 °C. The cells were lysed by sonication, and the lysate was subjected to Ni‐affinity chromatography (HisTrap HP, Cytiva, Vancouver, BC, Canada) followed by size exclusion chromatography (HiLoad Superdex 200 PG, Cytiva) (Fig. 2A). […] The purified enzyme was flash‐frozen in liquid nitrogen and stored at −80 °C. The final sample buffer (i.e., the size exclusion buffer) consisted of 10 mM HEPES (pH 7.5), 500 mM NaCl, 2 mM β‐mercaptoethanol, and 5% glycerol.
(§1) MK activity was measured by using a coupled enzyme assay as previously described. The reporter enzymes, pyruvate kinase and lactate dehydrogenase, were purchased as a pre‐mixed buffered solution from MilliporeSigma. […] All reactions were carried out at 32 °C in triplicate unless otherwise noted. Each reaction was initiated by adding 10 μL of MK (50 μg mL^−1; diluted from the −80 °C stock in 50 mM HEPES, pH 7.5) to 990 μL of the reaction buffer containing all the other components except MK (pre‐incubated at 32 °C for 5 min) and immediately transferring to a 1 mL disposable polystyrene cuvette (Fisherbrand) pre‐placed in the temperature‐controlled cell holder of an Agilent 8453 UV–visible Spectroscopy System. Blank reactions were added with 10 μL of 50 mM HEPES (pH 7.5) only. Reaction progress was continuously monitored by measuring the A340 for 1 min. To convert the measured absorbance to product concentration, an absorption coefficient of NADH determined from a calibration curve (5.4107 cm^−1 mM ^−1) was used. Initial rate experiments were conducted by varying the concentration of one substrate while keeping the other at a saturating concentration of 5 mM. Kinetic parameters were determined by fitting the rate data to the Michaelis–Menten model (Eqn 1), vi=VmaxS/Km+S, where [S] represents the concentration of the varied substrate. Data analysis was performed with […] PRISM software (GraphPad Software, Boston, MA, USA).
To prepare master stock solutions, the phosphonate compounds were dissolved in Milli‐Q water to a concentration of 20 mM, either as monosodium salts (monophosphonate compounds) or as trisodium salts (bisphosphonate compounds). Their effects on MK activity were evaluated by using the coupled enzyme assay described above. Each compound was tested at two concentrations: 1 and 10 μM.
To determine the IC 50, a more refined inhibition response across a broader range of inhibitor concentrations was measured. Typically, nine different inhibitor concentrations spanning a 10 000‐fold concentration range were used. Dose–response curves were generated by fitting the inhibition data to the following three‐parameter dose–response equation (Eqn 2), where Max and Min denote the maximum and minimum response, respectively: Response=Min+Max−Min/1+I/IC50.

human MK [3] = target: T2, human MK; assay: Steady-state kinetics of human MK (Michaelis-Menten, substrates); type: biochemical; conditions: one substrate varied, the other fixed at 5 mM; 32 °C; read-out: Km of recombinant MK for the substrate
human MK [4] = target: T2, human MK; assay: Mode of inhibition and Ki determination, initial rate experiments with MK; type: biochemical; conditions: for Ki' (ATP-bound enzyme), mixed inhibition model with respect to ATP: ATP varied 0.05-1 mM, MVA 5 mM; for Ki', uncompetitive inhibition model with respect to MVA: MVA varied 0.01-0.2 mM, ATP 5 mM
Protocol: as §1
In all experiments, one substrate was added at a constant concentration of 5 mM. […] Each inhibitor was tested at four different concentrations ranging from 0 to 200 nM. Data analysis was performed with […] PRISM software. The initial rates were fitted to steady‐state equations describing competitive inhibition model (Eqn 3), vi=VmaxS/Km1+I/Ki+S, noncompetitive inhibition model (Eqn 4), vi=VmaxS/1+I/Ki/Km+S, uncompetitive inhibition model (Eqn 5), vi=VmaxS/1+I/Ki^′/Km/1+I/Ki^′+S, and mixed inhibition model (Eqn 6), vi=VmaxS/1+I/Ki^′/Km1+I/Ki/1+I/Ki^′+S, where [S] represents the concentration of the varied substrate. The selection of the most appropriate models was determined through the extra sum‐of‐squares F test as implemented in the software.

FPPS [5] = target: T1, FPPS; assay: Inhibition of FPPS; type: biochemical; conditions: read-out: inhibition of FPPS at 10 μM; 10 μM compound; unpublished data
human MK [6] = target: T2, human MK; parameters: method as in PMID 9325256, PMID 18302342; conditions: ref [19], [20]; read-out: Km of MK for the substrate, previously reported; cited from earlier work

For `CC(C)=CCC/C(C)=C/CC/C(C)=C/CO[P@@](=O)(O)OP(=O)(O)O` (stereo in doubt) [FPP, farnesyl pyrophosphate, reference compound], the Kd (FPPS [1]) is listed as 5000 to 6000 nM and the IC50 (human MK [2]) is listed as 12 nM.
For `Nc1ncnc2c1ncn2[C@@H]1O[C@H](COP(=O)(O)OP(=O)(O)OP(=O)(O)O)[C@@H](O)[C@H]1O` [ATP], the Km (human MK [3]) was 61 µM.
In the case of `O=P(O)(O)CNc1ncnc2sccc12` [Compound 1], the “MK inhibition, result in words” value (human MK [2]) is reported as “Inactive at 10 μM”.
Work on `COc1cc(C)c(Cl)cc1-c1cc2c(NC(c3ccccc3)P(=O)(O)O)ncnc2s1` (stereo not drawn) [Compound 2] yielded an IC50 (human MK [2]) of 1900 nM.
Compound `Cc1ccc(-c2cc3c(NC(Cc4ccccc4)P(=O)(O)O)ncnc3s2)cc1Cl` (stereo not drawn) [Compound 6] has an IC50 (human MK [2]) of 2500 nM.
With `Cc1ccc(-c2cc3c(NC(Cc4cccc(F)c4)P(=O)(O)O)ncnc3s2)cc1OCC(C)C` (stereo not drawn) [Compound 9, (2‐(3‐Fluorophenyl)‐1‐((6‐(3‐isobutoxy‐4‐methylphenyl)thieno[2,3‐d]pyrimidin‐4‐yl)amino)ethyl)phosphonic acid] the IC50 (human MK [2]) was 1000 nM.
`Cc1ccc(-c2cc3c(NC(Cc4ccccc4)P(=O)(O)O)ncnc3s2)cc1OC1CC1` (stereo not drawn) [Compound 10, (1‐((6‐(3‐Cyclopropoxy‐4‐methylphenyl)thieno[2,3‐d]pyrimidin‐4‐yl)amino)‐2‐phenylethyl)phosphonic acid] gave an IC50 (human MK [2]) of 1600 nM.
For `O=P(O)(O)C(Nc1ncnc2sc(-c3ccc(C(F)(F)F)cc3)cc12)c1ccccc1` (stereo not drawn) [Compound 11, (phenyl((6‐(4‐(trifluoromethyl)phenyl)thieno[2,3‐d]pyrimidin‐4‐yl)amino)methyl)phosphonic acid], the IC50 (human MK [2]) was 42 nM, the Ki (human MK [4]) was 22 nM and the “Ki'/Ki ratio” value (human MK [4]; ATP as varied substrate, mixed inhibition model) was ~ 17. The “Ki' (ATP-bound enzyme), mixed inhibition model with respect to ATP” value (human MK [4]) was 380 nM, the “Ki', uncompetitive inhibition model with respect to MVA” value (human MK [4]) was 140 nM and the inhibition at 10 µM (FPPS [5]) was under 50%.
In the case of `O=P(O)(O)C(Nc1ncnc2sc(-c3ccc(F)cc3)cc12)c1ccccc1` (stereo not drawn) [Compound 12, (((6‐(4‐fluorophenyl)thieno[2,3‐d]pyrimidin‐4‐yl)amino)(phenyl)methyl)phosphonic acid], the IC50 (human MK [2]) is reported as 46 nM.
For `COc1cccc(OC)c1-c1cc2c(NC(c3ccccc3)P(=O)(O)O)ncnc2s1` (stereo not drawn) [Compound 13, (((6‐(2,6‐dimethoxyphenyl)thieno[2,3‐d]pyrimidin‐4‐yl)amino)(phenyl)methyl)phosphonic acid], the IC50 (human MK [2]) was 3300 nM.
`O=P(O)(O)C(Nc1ncnc2sc(-c3cccc(C(F)(F)F)c3)cc12)c1ccccc1` (stereo not drawn) [Compound 14, (phenyl((6‐(3‐(trifluoromethyl)phenyl)thieno[2,3‐d]pyrimidin‐4‐yl)amino)methyl)phosphonic acid] gave an IC50 (human MK [2]) of 120 nM.
`COc1cc(C)c(F)cc1-c1cc2c(NC(c3ccccc3)P(=O)(O)O)ncnc2s1` (stereo not drawn) [Compound 15] gave an IC50 (human MK [2]) of 2300 nM.
In the case of `Cn1cc(CCP(=O)(O)O)c2cc(-c3ccc(C(F)(F)F)cc3)ccc21` [Compound 16, 2‐(1‐Methyl‐5‐(4‐(trifluoromethyl)phenyl)‐1H‐indol‐3‐yl)ethylphosphonic acid], the IC50 (human MK [2]) is reported as 8.1 nM, the Ki (human MK [4]) is reported as 3.1 nM and the “Ki' (ATP-bound enzyme), mixed inhibition model with respect to ATP” value (human MK [4]) is reported as 14 nM. The “Ki', uncompetitive inhibition model with respect to MVA” value (human MK [4]) was 10 nM and the inhibition at 10 µM (FPPS [5]) was under 50%.
For `O=P(O)(O)C(Nc1ncnc2sc(-c3cccc(C(F)(F)F)c3)cc12)P(=O)(O)O` [Compound 17], the “MK inhibition, result in words” value (human MK [2]) was “Inactive at 10 μM”.
With `CC(C)=CCC/C(C)=C/CC/C(C)=C/COP(=O)(O)OP(=O)(O)O` [FPP, farnesyl pyrophosphate, reference compound] the inhibition at 1 µM (human MK [2]; read-out: inhibition of the MK reaction at 1 μM) was 96%.
In the case of `C[C@@](O)(CCO)CC(=O)O` [MVA, mevalonic acid], the Km (human MK [6]) is listed as 24 µM and 40.8 µM and the Km (human MK [3]) is listed as 37 µM.
